Here are results for four molecules from PMC2669657 (Journal of the American Chemical Society, 2009).

The target in data set [1] is Plasmodium falciparum orotate phosphoribosyltransferase (PfOPRT) (Plasmodium falciparum, UniProt Q8N0R1). Format: biochemical.
Data set [2] deals with T1, human orotate phosphoribosyltransferase (HsOPRT), OPRT domain of UMP synthase (Homo sapiens, UniProt P11172).
T1 sequence (P11172 2-245): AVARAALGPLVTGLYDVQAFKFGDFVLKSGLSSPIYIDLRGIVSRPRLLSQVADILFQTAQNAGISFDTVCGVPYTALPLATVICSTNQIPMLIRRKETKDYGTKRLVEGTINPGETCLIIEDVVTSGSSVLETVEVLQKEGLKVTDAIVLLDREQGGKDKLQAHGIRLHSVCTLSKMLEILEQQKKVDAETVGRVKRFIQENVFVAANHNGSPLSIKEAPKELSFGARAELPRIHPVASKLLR
Format: biochemical.

In data set [3] the target is T1, human orotate phosphoribosyltransferase (HsOPRT), OPRT domain of UMP synthase. Kind of data set: steady-state kinetics. Format: biochemical. Particulars: read-out: OMP / Km.
Substrate in the data set “purified protein”: O=C(O)c1cc(=O)[nH]c(=O)n1[C@@H]1O[C@H](COP(=O)(O)O)[C@@H](O)[C@H]1O
The data set can be described thus: purified protein. Format: biochemical, Plasmodium falciparum. The note with it: Mg2+ ([…] MgCl2 in assay); pH 8.0; 25.0 °C.

Substrate in the data set “steady-state kinetics”: O=C(O)CP(=O)(O)O
Kind of data set: steady-state kinetics. The note with it: Mg2+ ([…] MgCl2 in assay). Format: biochemical, Plasmodium falciparum.

As usually defined, the Ki is a measure of affinity in units of concentration, obtained from inhibition or displacement. A higher Ki goes with weaker binding. Consider `O=[N+]([O-])c1ccc(O[C@@H]2O[C@H](COP(=O)(O)O)[C@@H](O)[C@H]2O)cc1` [p-nitrophenyl β-D-ribose 5′-phosphate], for which the affinity in data set [1], expressed as Ki, was 40 ± 21 nM.
`O=[N+]([O-])c1ccc(O[C@@H]2O[C@H](CO)[C@@H](O)[C@H]2O)cc1` [p-nitrophenyl β-D-ribose]: the values for the Ki in data set [1] and in data set [2] were 188 ± 40 nM and 121 ± 30 nM, respectively.
`O=C(O)c1cc(=O)[nH]c(=O)n1[C@@H]1O[C@H](COP(=O)(O)O)[C@@H](O)[C@H]1O` [orotidine 5′-monophosphate]: the Km in data set [3] stood at 1.55 ± 0.61 µM.

B1: Plasmodium falciparum orotate phosphoribosyltransferase (PfOPRT) (Plasmodium falciparum) (protein)
chain: MTTIKENEFLCDEEIYKSFVHLKDKICEERKKKELVNNNIDNVNFNDDDDNNYDDDGNSYSSYIKEMKKLLKVVLLKYKALKFGEFILKSKRKSNYFFSSGVLNNIVSSNIICFLLSELILKNKLSFDYLLGASYKGIPMVSLTSHFLFESKKYSNIFYLYDRKEKKEYGDKNVIVGNLDDDDKDILNLKKKTKNNQDEEKKNIIIIDDVFTCGTALTEILAKLKTYEHLKVVAFIVLLNRNEYEINENNQKIYFKDIFEKRVGIPLYSILSYKDDIQSMI
Usually kcat stands for the maximal rate divided by the concentration of active sites. Broadly, the kcat/Km is the turnover number divided by the Michaelis constant. Regarding B1, in the data set “purified protein”, the Km was found to be 3.73 ± 1.36 µM, the kcat is 1.96 ± 0.29 s⁻¹ and the kcat/Km is 530000 M⁻¹ s⁻¹. Also, in the data set “steady-state kinetics”, the Km was determined as 1590 µM.
